Assay results published in US5397781A, “Pyrimidine derivatives” (Mochida Pharmaceutical Company, Limited, priority 1992, dated 1995).
pIC50: −log10 of the molar value.

target: T1, ACAT (Rattus norvegicus, UniProt Q7TQM4); test: Inhibitory effect on microsomal ACAT activity in rat liver; format: biochemical; settings: rat liver microsomes; read-out: IC50 (50% inhibition of cholesterol esterification)
T1 construct: Liver microsomes as an enzyme sample of ACAT were prepared from overnight-fasted male rats; from tissue; host or cells: liver of overnight-fasted male rats, 6 weeks old; microsomes
T1 sequence (Q7TQM4 1-524): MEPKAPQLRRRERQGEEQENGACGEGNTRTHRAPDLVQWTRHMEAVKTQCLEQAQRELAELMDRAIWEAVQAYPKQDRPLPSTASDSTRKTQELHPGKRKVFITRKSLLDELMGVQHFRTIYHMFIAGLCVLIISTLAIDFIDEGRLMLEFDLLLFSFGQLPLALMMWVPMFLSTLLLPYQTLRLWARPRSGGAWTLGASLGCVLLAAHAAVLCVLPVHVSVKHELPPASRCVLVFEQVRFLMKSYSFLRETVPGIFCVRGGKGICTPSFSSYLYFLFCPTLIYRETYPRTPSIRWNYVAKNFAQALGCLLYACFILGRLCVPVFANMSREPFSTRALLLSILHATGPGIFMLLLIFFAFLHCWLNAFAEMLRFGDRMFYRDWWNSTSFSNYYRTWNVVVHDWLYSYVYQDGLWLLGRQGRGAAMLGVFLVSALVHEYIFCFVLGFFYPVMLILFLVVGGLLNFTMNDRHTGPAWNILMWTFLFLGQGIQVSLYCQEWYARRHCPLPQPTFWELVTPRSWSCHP

SMILES	pIC50
CCCCCCN(CCCC(=O)Nc1c(OC)nc(SC)nc1N(CC)CC)c1ccccc1 [Example 168, N-[4-(N,N-diethylamino)-6-methoxy-2-methylthiopyrimidin-5-yl]-4-(N-hexyl-N-phenylamino)butanamide]	7.06
CCN(CC)c1nc(C)nc(S)c1NC(=O)CCCN1CCCc2ccccc21 [Example 183, N-[4-(N,N-diethylamino)-6-mercapto-2-methylpyrimidin-5-yl]-4-(tetrahydroquinolino)butanamide]	6.55
CCN(CC)c1nc(C)nc(SC)c1NC(=O)CCCN1CCCc2ccccc21 [Example 244, N-[4-(N,N-diethylamino)-2-methyl-6-methylthiopyrimidin-5-yl]-4-(N-tetrahydroquinolino)butanamide]	6.72
CCCCCCSc1nc(C)nc(N(CCC)c2ccccc2)c1NC(=O)CCCN(CCC)c1ccccc1 [Example 257, N-[4-hexylthio-2-methyl-6-(N-phenyl-N-propylamino)pyrimidin-5-yl]-4-(N-phenyl-N-propylamino)butanamide]	6.66
CCCCCCN(CCCC(=O)Nc1c(SC)nc(C)nc1N(CC)CC)c1ccc(OC)cc1 [Example 239, N-[4-(N,N-diethylamino)-2-methyl-6-methylthiopyrimidin-5-yl]-4-[N-hexyl-N-(4-methoxyphenyl)amino]butanamide]	6.92
CCCSc1nc(C)nc(N(CCC)c2ccccc2)c1NC(=O)CCCN(CCC)c1ccccc1 [Example 256, N-[2-methyl-4-(N-phenyl-N-propylamino)-6-propylthiopyrimidin-5-yl]-4-(N-phenyl-N-propylamino)butanamide]	7.00
CCCN(CC(=O)Nc1c(SC)nc(C)nc1N(CC)CC)Cc1ccccc1 [Example 210, 2-(N-benzyl-N-propylamino) N-[4-(N,N-diethylamino)-2-methyl-6-methylthiopyrimidin-5-yl]acetamide]	6.33
CCCN(CCCCCC(=O)Nc1c(S)nc(C)nc1N(CCC)c1ccccc1)c1ccccc1 [Example 205, N-[4-mercapto-2-methyl-6-(N-phenyl-N-propylamino)pyrimidin-5-yl]-6-(N-phenyl-N-propylamino)hexanamide]	6.55
CCCCCCN(CCCC(=O)Nc1c(SC)nc(C)nc1N(CCCC)CCCC)c1ccccc1 [Example 227, N-[4-(N,N-dibutylamino)-2-methyl-6-methylthiopyrimidin-5-yl]-4-(N-hexyl-N-phenylamino)butanamide]	6.96
CCN(CC)c1nc(C)nc(SC)c1NC(=O)CCCN(C)c1ccccc1 [Example 224, N-[4-(N,N-diethylamino)-2-methyl-6-methylthiopyrimidin-5-yl]-4-(N-methyl-N-phenylamino)butanamide]	6.66
CCCN(CCCC(=O)Nc1c(OCc2ccccc2)nc(C)nc1C(C)C)c1ccccc1 [Example 263, N-(4-benzyloxy-6-isopropyl-2-methylpyrimidin-5-yl)-4-(N-phenyl-N-propylamino)butanamide]	7.00
CCCN(CCCC(=O)Nc1c(S)nc(C)nc1N(CC)CC)c1ccc(OC)cc1 [Example 173, N-[4-(N,N-diethylamino)-6-mercapto-2-methylpyrimidin-5-yl]-4-[N-(4-methoxyphenyl)-N-propylamino]butanamide]	6.77

Compounds with a higher pIC50, results first:

pIC50	SMILES
7.09	CCCCCCN(CCCC(=O)Nc1c(OC)nc(C)nc1N(CC)CC)c1ccccc1 [Example 166, N-[4-(N,N-diethylamino)-6-methoxy-2-methylpyrimidin-5-yl]-4-(N-hexyl-N-phenylamino)butanamide]
7.10	CCCN(CCCC(=O)Nc1c(S)nc(C)nc1N(CC)CC)c1ccccc1 [Example 145, N-[4-(N,N-diethylamino)-6-mercapto-2-methylpyrimidin-5-yl]-4-(N-phenyl-N-propylamino)butanamide]
7.12	CCCN(CCCC(=O)Nc1c(SC)nc(C)nc1N(CC)CC)c1ccc(F)cc1F [Example 241, N-[4-(N,N-diethylamino)-2-methyl-6-methylthiopyrimidin-5-yl]-4-[N-(2,4-difluorophenyl)-N-propylamino]butanamide]
7.12	CCCN(CCCC(=O)Nc1c(SCc2ccccc2)nc(C)nc1N(CC)CC)c1ccccc1 [Example 259, N-[4-benzylthio-6-(N,N-dietylamino)-2-methylpyrimidin-5-yl]-4-(N-phenyl-N-propylamino)butanamide]
7.19	CCCN(CCCCC(=O)Nc1c(SC)nc(C)nc1N(CC)CC)c1ccccc1 [Example 245, N-[4-(N,N-diethylamino)-2-methyl-6-methylthiopyrimidin-5-yl]-5-(N-phenyl-N-propylamino)pentanamide]
7.33	CCCCN(CCCC)c1nc(C)nc(OC)c1NC(=O)CCCCN(CCC)c1ccccc1 [Example 195, N-[4-(N,N-dibutylamino)-6-methoxy-2-methylpyrimidin-5-yl]-5-(N-phenyl-N-propylamino)pentanamide]
7.43	CCCCCCN(CCCC(=O)Nc1c(SC)nc(C)nc1N(CC)CC)c1ccc(Br)cc1 [Example 272, 4-[N-(4-bromophenyl)-N-hexylamino]-N-[4-(N,N-diethylamino)-2-methyl-6-methylthiopyrimidin-5yl]butanamide]
7.48	CCCCCCN(CCCCC(=O)Nc1c(SC)nc(C)nc1N(CC)CC)c1ccccc1 [Example 252, N-[4-(N,N-diethylamino)-2-methyl-6-methylthiopyrimidin-5-yl]-5-(N-hexyl-N-phenylamino)pentanamide]
7.49	CCCN(CCCCC(=O)Nc1c(SC)nc(C)nc1N(CC)Cc1ccccc1)c1ccccc1 [Example 248, N-[4-(N-benzyl-N-ethylamino)-2-methyl-6-methylthiopyrimidin-5-yl]-5-(N-phenyl-N-propylamino)pentanamide]
7.59	CCN(CC)c1nc(C)nc(SC)c1NC(=O)CCCN(c1ccccc1)C1CCCCCC1 [Example 235, 4-(N-cycloheptyl-N-phenylamino)-N-[4-(N,N-diethylamino)-2-methyl-6-methylthiopyrimidin-5-yl]butanamide]
7.60	CCCCCCN(CCCC(=O)Nc1c(SC)nc(SC)nc1N(CC)CC)c1ccccc1 [Example 234, N-[4-(N,N-diethylamino)-2,6-bis(methylthio)pyrimidin-5-yl]-4-(N-hexyl-N-phenylamino)butanamide]
7.80	CCCCCCN(CCCC(=O)Nc1c(SC)nc(C)nc1N(CCC)CCC)c1ccccc1 [Example 226, N-[4-(N,N-dipropylamino)-2-methyl-6-methylthiopyrimidin-5-yl]-4-(N-hexyl-N-phenylamino)butanamide]
7.85	CCCN(CCCCC(=O)Nc1c(SC)nc(C)nc1N(CCC)CCC)c1ccccc1 [Example 246, N-[4-(N,N-dipropylamino)-2-methyl-6-methylthiopyrimidin-5-yl]-5-(N-phenyl-N-propylamino)pentanamide]
8.02	CCCCN(CCCC)c1ncnc(SC)c1NC(=O)CCCCN(CCC)c1ccccc1 [Example 250, N-[4-(N,N-dibutylamino)-6-methylthiopyrimidin-5-yl]-5-(N-phenyl-N-propylamino)pentanamide]
8.06	CCCCN(CCCC)c1ncnc(OCC)c1NC(=O)CCCCN(CCC)c1ccccc1 [Example 197, N-[4-(N,N-dibutylamino)-6-ethoxypyrimidin-5-yl]-5-(N-phenyl-N-propylamino)pentanamide]
